Data reported in ChEMBL document CHEMBL1201862, “PubChem BioAssay data set” (2004).
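Results reflect a 48-hour exposure of cells in 96-well plates to compound at five concentrations. GI50 is the concentration that inhibits growth by half.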 Active and inactive are the calls of the source. Cut-off read from the data, not from the text of the source: active = GI50 up to about 1.1 µM and inactive = higher.

Assays:
Assay in all cases: growth of human tumour cells (NCI), 48 h
UACC-257 = system: UACC-257
CAKI-1 = system: CAKI-1
SR = system: SR
786-0 = system: 786-0
RPMI-8226 = system: RPMI-8226
Malme-3M = system: Malme-3M
HCT-15 = system: HCT-15
SK-MEL-28 = system: SK-MEL-28
SNB-75 = system: SNB-75
KM-20L2 = system: KM-20L2
SNB-19 = system: SNB-19
SF-295 = system: SF-295
A549 = system: A549
UACC-62 = system: UACC-62
ACHN = system: ACHN
IGROV-1 = system: IGROV-1
SK-OV-3 = system: SK-OV-3
SK-MEL-5 = system: SK-MEL-5
HOP-62 = system: HOP-62

Compound	GI50 (UACC-257)	GI50 (CAKI-1)	GI50 (SR)	GI50 (786-0)	GI50 (RPMI-8226)	GI50 (Malme-3M)	GI50 (HCT-15)	GI50 (SK-MEL-28)	GI50 (SNB-75)	GI50 (KM-20L2)	GI50 (SNB-19)	GI50 (SF-295)	GI50 (A549)	GI50 (UACC-62)	GI50 (ACHN)	GI50 (IGROV-1)	GI50 (SK-OV-3)	GI50 (SK-MEL-5)	GI50 (HOP-62)
CC(Cn1c2c3ccccc3ccc2c2oc(=O)c3ccccc3c21)N(C)C (centres undefined)	> 100 µM (inactive)	> 100 µM (inactive)	> 100 µM (inactive)	> 100 µM (inactive)	> 100 µM (inactive)	> 100 µM (inactive)	> 100 µM	> 100 µM (inactive)	> 100 µM (inactive)	> 100 µM (inactive)	> 100 µM (inactive)	> 100 µM (inactive)	> 100 µM (inactive)	> 100 µM (inactive)	> 100 µM (inactive)	> 100 µM (inactive)	–	–	–
Cc1[nH]c2c(C)cccc2c1C1Cc2ccccc2N1 (centres undefined)	22.3 µM (inactive)	–	20.7 µM (inactive)	22.3 µM (inactive)	22.9 µM (inactive)	19.1 µM (inactive)	21.3 µM	18.8 µM (inactive)	> 100 µM (inactive)	17.1 µM (inactive)	29.1 µM (inactive)	19.8 µM (inactive)	21.7 µM (inactive)	18.6 µM (inactive)	27.4 µM (inactive)	17.3 µM (inactive)	36.5 µM (inactive)	18.5 µM (inactive)	16.4 µM (inactive)
O=C1c2ccccc2N2OC3(N4CCCC4)CCCCC3C12c1ccccc1 (centres undefined)	19.3 µM (inactive)	–	33.8 µM (inactive)	17.7 µM (inactive)	> 100 µM (inactive)	18.8 µM (inactive)	26.4 µM	25.4 µM (inactive)	34.1 µM (inactive)	43.5 µM (inactive)	> 100 µM (inactive)	18.3 µM (inactive)	21 µM (inactive)	16.4 µM (inactive)	18.5 µM (inactive)	42 µM (inactive)	> 100 µM (inactive)	15.1 µM (inactive)	> 100 µM (inactive)
COC(=O)/C=C1/CCC(C(=O)OC)N1 (centres undefined)	> 100 µM (inactive)	> 100 µM (inactive)	> 100 µM (inactive)	> 100 µM (inactive)	> 100 µM (inactive)	–	> 100 µM	> 100 µM (inactive)	> 100 µM (inactive)	> 100 µM (inactive)	> 100 µM (inactive)	> 100 µM (inactive)	> 100 µM (inactive)	> 100 µM (inactive)	> 100 µM (inactive)	> 100 µM (inactive)	> 100 µM (inactive)	> 100 µM (inactive)	> 100 µM (inactive)
COc1ccc(S(=O)(=O)N/N=C/CN2C(=O)c3ccccc3C2=O)cc1	> 100 µM (inactive)	> 100 µM (inactive)	> 100 µM (inactive)	> 100 µM (inactive)	> 100 µM (inactive)	> 100 µM (inactive)	> 100 µM	–	> 100 µM (inactive)	> 100 µM (inactive)	> 100 µM (inactive)	> 100 µM (inactive)	> 100 µM (inactive)	> 100 µM (inactive)	> 100 µM (inactive)	> 100 µM (inactive)	–	> 100 µM (inactive)	> 100 µM (inactive)
CCOC(=O)C(=O)Nc1nc2ccc(C)cc2s1	> 100 µM (inactive)	> 100 µM (inactive)	> 100 µM (inactive)	27.9 µM (inactive)	> 100 µM (inactive)	> 100 µM (inactive)	> 100 µM	> 100 µM (inactive)	> 100 µM (inactive)	> 100 µM (inactive)	> 100 µM (inactive)	–	32.4 µM (inactive)	> 100 µM (inactive)	> 100 µM (inactive)	> 100 µM (inactive)	> 100 µM (inactive)	> 100 µM (inactive)	> 100 µM (inactive)
COC(=O)C1=C(c2cc(OC)c(OC)c(OC)c2)O[C@H](c2ccc3c(c2)OCO3)[C@H]1COC(C)=O	40.7 µM (inactive)	19.8 µM (inactive)	7.35 µM (inactive)	29.4 µM (inactive)	24.2 µM (inactive)	34.4 µM (inactive)	22.1 µM	–	27.3 µM (inactive)	30.3 µM (inactive)	–	6.85 µM (inactive)	–	–	26.4 µM (inactive)	22.2 µM (inactive)	23.1 µM (inactive)	9.35 µM (inactive)	21.5 µM (inactive)
CC(=O)OCc1c(O)nc2c(c1O)-c1ccccc1CC2	81.3 µM (inactive)	59.2 µM (inactive)	95.1 µM (inactive)	56.9 µM (inactive)	38.5 µM (inactive)	> 35 µM (inactive)	57.5 µM	59.6 µM (inactive)	–	106 µM (inactive)	> 350 µM (inactive)	74.6 µM (inactive)	134 µM (inactive)	50.5 µM (inactive)	163 µM (inactive)	164 µM (inactive)	194 µM (inactive)	76.6 µM (inactive)	131 µM (inactive)
O=C1C=C(Nc2ccccc2C(=O)c2ccccc2)c2ccccc2C1=O	5.85 µM (inactive)	> 100 µM (inactive)	48.1 µM (inactive)	> 100 µM (inactive)	51.6 µM (inactive)	> 100 µM (inactive)	70.5 µM	> 100 µM (inactive)	96.6 µM (inactive)	> 100 µM (inactive)	> 100 µM (inactive)	> 100 µM (inactive)	> 100 µM (inactive)	8.04 µM (inactive)	45 µM (inactive)	> 100 µM (inactive)	> 100 µM (inactive)	–	> 100 µM (inactive)
COc1cc2noc(-c3ccccc3)c2cc1OC	> 100 µM (inactive)	27.4 µM (inactive)	37 µM (inactive)	29.2 µM (inactive)	18.7 µM (inactive)	> 100 µM (inactive)	38.7 µM	–	4.59 µM (inactive)	37.4 µM (inactive)	54 µM (inactive)	19 µM (inactive)	54.3 µM (inactive)	74.3 µM (inactive)	87.1 µM (inactive)	> 100 µM (inactive)	63 µM (inactive)	46.7 µM (inactive)	22.4 µM (inactive)
COc1cc(/C=C2\CCc3ccccc3C2=O)cc(OC)c1OC	14.3 µM (inactive)	16.1 µM (inactive)	3.86 µM (inactive)	15.7 µM (inactive)	3.92 µM (inactive)	16.4 µM (inactive)	17.3 µM	15.1 µM (inactive)	22.2 µM (inactive)	17.2 µM (inactive)	15.8 µM (inactive)	15 µM (inactive)	20.9 µM (inactive)	14.3 µM (inactive)	15.8 µM (inactive)	–	18.6 µM (inactive)	12.6 µM (inactive)	21.5 µM (inactive)
CCOC(=O)CNC(SC)=C(C#N)C#N	> 100 µM (inactive)	> 100 µM (inactive)	> 100 µM (inactive)	> 100 µM (inactive)	> 100 µM (inactive)	> 100 µM (inactive)	> 100 µM	–	> 100 µM (inactive)	> 100 µM (inactive)	> 100 µM (inactive)	> 100 µM (inactive)	> 100 µM (inactive)	> 100 µM (inactive)	–	> 100 µM (inactive)	> 100 µM (inactive)	> 100 µM (inactive)	> 100 µM (inactive)
